Experimental data published in PubChem BioAssay AID248 (DTP/NCI, 2004).
Where “and” joins values, the source holds several entries; their conditions need not be identical. Equal values may be shown once. Toxic doses and inconclusive results are not listed. Cut-off read from the data, not from the text of the source: active = T/C of 150% or more; inactive = T/C below 125%.

System: L1210 leukemia ip in BDF1 mice, survival T/C
Assay: NCI In Vivo Anticancer Drug Screen. Data for tumor model L1210 Leukemia (intraperitoneal) in B6D2F1 (BDF1) mice
Details: endpoint: mean survival time, higher = longer survival
Procedure, shortened: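 Ratio derived from survival: compound-dosed mice over vehicle-dosed mice, all bearing a transplantable tumor.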

[1] = dose: 100.0 mg/kg/injection, schedule: Q04DX003 (ip), vehicle: saline with Tween-80
[2] = dose: 200.0 mg/kg/injection, schedule: Q04DX003 (ip), vehicle: saline with Tween-80
[3] = dose: 400.0 mg/kg/injection, schedule: Q04DX003 (ip), vehicle: saline with Tween-80
[4] = dose: 100.0 mg/kg/injection, schedule: Q01DX001 (ip), vehicle: saline with Tween-80
[5] = dose: 100.0 mg/kg/injection, schedule: Q01DX009 (ip), vehicle: Klucel (hydroxypropylcellulose) (HPC)
[6] = dose: 200.0 mg/kg/injection, schedule: Q01DX009 (ip), vehicle: Klucel (hydroxypropylcellulose) (HPC)
[7] = dose: 400.0 mg/kg/injection, schedule: Q01DX009 (ip), vehicle: Klucel (hydroxypropylcellulose) (HPC)
[8] = dose: 100.0 mg/kg/injection, schedule: Q01DX009 (ip), vehicle: saline with Tween-80
[9] = dose: 200.0 mg/kg/injection, schedule: Q01DX009 (ip), vehicle: saline with Tween-80
[10] = dose: 400.0 mg/kg/injection, schedule: Q01DX009 (ip), vehicle: saline with Tween-80
[11] = dose: 100.0 mg/kg/injection, schedule: Q01DX001 (ip), vehicle: Klucel (hydroxypropylcellulose) (HPC)
[12] = dose: 200.0 mg/kg/injection, schedule: Q01DX001 (ip), vehicle: Klucel (hydroxypropylcellulose) (HPC)
[13] = dose: 400.0 mg/kg/injection, schedule: Q01DX001 (ip), vehicle: Klucel (hydroxypropylcellulose) (HPC)
[14] = dose: 100.0 mg/kg/injection, schedule: Q04DX003 (ip), vehicle: Klucel (hydroxypropylcellulose) (HPC)
[15] = dose: 200.0 mg/kg/injection, schedule: Q04DX003 (ip), vehicle: Klucel (hydroxypropylcellulose) (HPC)
[16] = dose: 400.0 mg/kg/injection, schedule: Q04DX003 (ip), vehicle: Klucel (hydroxypropylcellulose) (HPC)
[17] = dose: 100.0 mg/kg/injection, schedule: Q04DX003 (ip), vehicle: saline
[18] = dose: 200.0 mg/kg/injection, schedule: Q04DX003 (ip), vehicle: saline

Measured: T/C

COc1cc(CCl)c(CCl)c(OC)c1OC
inactive: dose: 75.0 mg/kg/injection, schedule: Q01DX001 (ip), vehicle: carboxymethylcellulose (CMC) 96 % of control | dose: 150.0 mg/kg/injection, schedule: Q01DX001 (ip), vehicle: carboxymethylcellulose (CMC) 95 % of control | dose: 300.0 mg/kg/injection, schedule: Q01DX001 (ip), vehicle: carboxymethylcellulose (CMC) 93 % of control

Oc1c(Br)cc(Br)cc1C=Nc1ccc(Br)cc1.Oc1c(Br)cc(Br)cc1C=Nc1ccc(Br)cc1.[Co]
inactive: [1] 95 % of control | [2] 95 % of control | [3] 95 % of control

O=S(=O)(Nc1cc(N2CCOCC2)c(O)c2ccccc12)c1ccccc1
inactive: dose: 25.0 mg/kg/injection, schedule: Q01DX001 (ip), vehicle: saline with Tween-80 95 % of control | dose: 50.0 mg/kg/injection, schedule: Q01DX001 (ip), vehicle: saline with Tween-80 97 % of control | [4] 94 % of control

C[N+](C)(CCCCOCCCC[N+](C)(C)Cc1ccc([N+](=O)[O-])cc1)Cc1ccc([N+](=O)[O-])cc1
inactive: dose: 1.5 mg/kg/injection, schedule: Q04DX003 (ip), vehicle: saline with Tween-80 98 % of control | dose: 3.0 mg/kg/injection, schedule: Q04DX003 (ip), vehicle: saline with Tween-80 104 % of control

CC(C)(C)OC(=O)CC#N
inactive: dose: 75.0 mg/kg/injection, schedule: Q04DX003 (ip), vehicle: saline 97 % of control | dose: 100.0 mg/kg/injection, schedule: Q01DX001 (ip), vehicle: saline 97 % of control | dose: 150.0 mg/kg/injection, schedule: Q04DX003 (ip), vehicle: saline 94 % of control | dose: 200.0 mg/kg/injection, schedule: Q01DX001 (ip), vehicle: saline 101 % of control | dose: 300.0 mg/kg/injection, schedule: Q04DX003 (ip), vehicle: saline 100 % of control

CC1(C)NC(=O)N(Cc2ccccc2)C1=O
inactive: [5] 94 % of control | [1] 98 % of control | [6] 97 % of control | [2] 110 % of control | [7] 100 % of control | [3] 105 % of control

Cc1ccc2nc(C#N)c(C#N)nc2c1
inactive: dose: 6.25 mg/kg/injection, schedule: Q01DX009 (ip), vehicle: Klucel (hydroxypropylcellulose) (HPC) 106 % of control | dose: 12.5 mg/kg/injection, schedule: Q01DX009 (ip), vehicle: Klucel (hydroxypropylcellulose) (HPC) 97 % of control | dose: 25.0 mg/kg/injection, schedule: Q01DX009 (ip), vehicle: Klucel (hydroxypropylcellulose) (HPC) 95 % of control and 89 % of control

CC(C)(C)N=C1OC(=O)c2ccccc21
inactive: [8] 107 % of control | [9] 98 % of control | [10] 94 % of control

NC(=O)Cc1ccccc1N
inactive: [11] 98 % of control | [12] 114 % of control | [13] 98 % of control

CC12CCC(C1)C(C)(C)/C2=N\N=C(N)N (stereo not drawn)
inactive: dose: 15.0 mg/kg/injection, schedule: Q01DX Z (ip), vehicle: saline 93 % of control | dose: 30.0 mg/kg/injection, schedule: Q01DX Z (ip), vehicle: saline 103 % of control | dose: 60.0 mg/kg/injection, schedule: Q01DX Z (ip), vehicle: saline 93 % of control | dose: 120.0 mg/kg/injection, schedule: Q01DX Z (ip), vehicle: saline 97 % of control | dose: 188.0 mg/kg/injection, schedule: Q01DX Z (oral), vehicle: saline 103 % of control | dose: 375.0 mg/kg/injection, schedule: Q01DX Z (oral), vehicle: saline 105 % of control | dose: 750.0 mg/kg/injection, schedule: Q01DX Z (oral), vehicle: saline 91 % of control

c1ccc(CNCC(NCc2ccccc2)c2ccccc2)cc1 (stereo not drawn)
inactive: [14] 91 % of control | [1] 93 % of control | [15] 93 % of control | [2] 97 % of control | [16] 98 % of control | [3] 88 % of control

CC(=O)OCC(CCn1ccc(=O)[nH]c1=O)COC(C)=O
inactive: [8] 93 % of control | [1] 100 % of control | [9] 95 % of control | [2] 105 % of control | [10] 100 % of control | [3] 106 % of control

CN=C(c1ccc(NC(=O)c2ccc(C(=O)Nc3ccc(C(=NC)N4CCOCC4)cc3)cc2)cc1)N1CCOCC1
inactive: dose: 0.9 mg/kg/injection, schedule: Q01DX Z (ip), vehicle: carboxymethylcellulose (CMC) 86 % of control | dose: 1.87 mg/kg/injection, schedule: Q01DX Z (ip), vehicle: carboxymethylcellulose (CMC) 91 % of control | dose: 3.75 mg/kg/injection, schedule: Q01DX Z (ip), vehicle: carboxymethylcellulose (CMC) 93 % of control | dose: 7.5 mg/kg/injection, schedule: Q01DX Z (ip), vehicle: carboxymethylcellulose (CMC) 91 % of control | dose: 15.0 mg/kg/injection, schedule: Q01DX Z (ip), vehicle: carboxymethylcellulose (CMC) 101 % of control

CCOP(=O)(OCC)c1cccc(N)c1
inactive: [17] 100 % of control | [18] 87 % of control | dose: 400.0 mg/kg/injection, schedule: Q04DX003 (ip), vehicle: saline 100 % of control

CC(C(O)c1ccccc1)N(C)/N=N/c1nc[nH]c1C(N)=O (stereo not drawn)
inactive: [4] 92 % of control | [8] 98 % of control | [1] 98 % of control | dose: 200.0 mg/kg/injection, schedule: Q01DX001 (ip), vehicle: saline with Tween-80 90 % of control | [9] 103 % of control | [2] 102 % of control | dose: 400.0 mg/kg/injection, schedule: Q01DX001 (ip), vehicle: saline with Tween-80 92 % of control | [10] 107 % of control | [3] 102 % of control

O=c1nccc[nH]1
inactive: [17] 97 % of control | [18] 97 % of control

CCN(CC)CCCC(C)Nc1c2ccc(Cl)cc2nc2ccc(F)cc12 (stereo not drawn)
inactive: dose: 44.0 mg/kg/injection, schedule: Q01DX Z (ip), vehicle: saline 111 % of control | dose: 66.0 mg/kg/injection, schedule: Q01DX Z (ip), vehicle: saline 117 % of control | dose: 100.0 mg/kg/injection, schedule: Q01DX Z (ip), vehicle: saline 117 % of control

COc1cc([N+](=O)[O-])ccc1NC(=O)OCC(Cl)(Cl)Cl
inactive: [11] 98 % of control | [5] 93 % of control and 92 % of control | dose: 100.0 mg/kg/injection, schedule: Q04DX002 (ip), vehicle: Klucel (hydroxypropylcellulose) (HPC) 95 % of control and 102 % of control | [14] 99 % of control | [12] 100 % of control | [6] 103 % of control and 92 % of control | dose: 200.0 mg/kg/injection, schedule: Q04DX002 (ip), vehicle: Klucel (hydroxypropylcellulose) (HPC) 98 % of control and 111 % of control | [15] 94 % of control | [13] 96 % of control | [7] 109 % of control and 88 % of control | dose: 400.0 mg/kg/injection, schedule: Q04DX002 (ip), vehicle: Klucel (hydroxypropylcellulose) (HPC) 95 % of control and 98 % of control | [16] 105 % of control

CC(C)CCCC(C)C1CCC2C3CC=C4CC(O)CCC4(C)C3CCC12C (stereo not drawn) (tested in a mixture with another compound)
inactive: dose: 50.0 mg/kg/injection, schedule: Q01DX009 (ip), vehicle: water 94 % of control | dose: 100.0 mg/kg/injection, schedule: Q01DX001 (ip), vehicle: water 102 % of control and 108 % of control | dose: 100.0 mg/kg/injection, schedule: Q01DX009 (ip), vehicle: water 102 % of control | dose: 100.0 mg/kg/injection, schedule: Q04DX003 (ip), vehicle: water 90 % of control | dose: 200.0 mg/kg/injection, schedule: Q01DX001 (ip), vehicle: water 105 % of control | dose: 200.0 mg/kg/injection, schedule: Q01DX009 (ip), vehicle: water 103 % of control | dose: 200.0 mg/kg/injection, schedule: Q04DX003 (ip), vehicle: water 88 % of control | dose: 400.0 mg/kg/injection, schedule: Q01DX001 (ip), vehicle: water 105 % of control | dose: 400.0 mg/kg/injection, schedule: Q04DX003 (ip), vehicle: water 87 % of control
